From patent publication US6569832B1, “Inhibition of beta cell degeneration” (Novo Nordisk A/S, priority 1999, dated 2003)

Legend:
beta-cells [1] = assay: beta-cell proliferation rate (BrDU incorporation) in pancreas of treated ZDF rats; assay type: in vivo, male Zucker Diabetic Fatty fa/fa (ZDF) rat
Excerpt: (§1) The male Zucker Diabetic Fatty fa/fa (ZDF) rat is a model of Type 2 diabetes. The rats are insulin resistant but normoglycemic from birth and they develop diabetes from about week 7 to week 10 of age. During the transitional period, the animals go through a state of impaired glucose tolerance. Although the animals are hyperinsulinemic before diabetes onset and during the early stages of diabetes, they later lose glucose-stimulated insulin secretion and finally become almost completely insulinopenic.
We have studied the effects of Arg^34, Lys^26(N-ε-(γ-Glu(N-α-hexadecanoyl)))-GLP-1(7-37) therapy during a period of time when the animals would normally progress from having impaired glucose tolerance to having overt Type 2 diabetes. Three groups of male ZDF rats (Genetic Models Inc, Indianapolis, Ind., USA) were studied and dosed subcutaneously bi-daily with either vehicle (group A), 30 (group B) or 150 μg/kg (group C) of Arg^34, Lys^26(N-ε-(γ-Glu(N-α-hexadecanoyl)))-GLP-1(7-37), n=6 per group. Animals were between 7 and 8 weeks old when dosing was initiated, and fed glucose levels were not different between the groups before dosing began.
Bromodeoxyuridine (BrDU) is incorporated in newly synthesized DNA and thus will label replicating cells. Six hours before sacrifice the rats were given an injection of 100 mg BrDU/kg intraperitoneally. […]

beta-cells [2] = assay: volume fraction of beta-cells related to total pancreas volume in treated ZDF rats (point counting stereology); assay type: in vivo, male Zucker Diabetic Fatty fa/fa (ZDF) rat
Excerpt: as §1
We have studied the effects of Arg^34, Lys^26(N-ε-(γ-Glu(N-α-hexadecanoyl)))-GLP-1(7-37) therapy during a period of time when the animals would normally progress from having impaired glucose tolerance to having overt Type 2 diabetes. […]
Neighbor sections were stained for insulin and the combination of glucagon-somatostatin-pancreatic polypeptide for the measurement of the relative mass of islet beta-cells and nonbeta-cells. […] The nonbeta-cells were stained with a mixture of monoclonal mouse anti-glucagon+rabbit anti-somatostatin+rabbit anti-pancreatic polypeptide, detected by biotinylated swine anti-multible Ig's, avidin peroxidase, and developed with DAB and CuSO4 to give a dark brown stain. […]

neonatal rat islet cells = assay: cytokine-induced apoptosis in neonatal rat islet cells (annexin V-FITC/PI flow cytometry); assay type: cell-based
Experimental: Neonatal rats were sacrificed and pancreata were aseptically isolated. Islets of Langerhans were isolated by standard techniques. Intact islets were cultured in 6-well tissue culture plates at 750 islets/well (Nunc, Roskilde, Denmark) with or without 40 U/ml recombinant rat interleukin 1, 100 U/ml interferon-γ, and 100 U/ml tumor necrosis factor-α (all from Peprotech, London, UK) and the indicated doses of the GLP-1 derivative, Arg^34, Lys^26(N-ε-(γ-Glu(N-α-hexadecanoyl)))-GLP-1(7-37). After 24 hours of in vitro culture, single cell suspensions were obtained from the islets by gentle triturating in trypsin. After 2 rounds of washing, islet cells were reacted with annexin V-FITC and propedium iodide (PI) using a commercial staining kit according to the manufactures recommendations (Pharmingen, San Diego, Calif., USA). At the end of incubation the samples were analyzed by flow cytometry using a FACScalibur (Becton Dickinson, Mountain View, Calif., USA). Dead cells were excluded by gating on PI-negative cells, 25000 viable cells were acquired per sample. Data were analyzed using the CellQuest software (Becton Dickinson).

Substance: Arg^34, Lys^26(N-ε-(γ-Glu(N-α-hexadecanoyl)))-GLP-1(7-37)
- beta-cell proliferation at the dose where volume of beta-cells increased (beta-cells [1]; 30 ng/g): proliferation was not seen
- fraction of beta-cells that had incorporated BrDU (percentage of BrDU positive beta-cells) (beta-cells [1]; subcutaneously bi-daily 30 or 150 μg/kg vs vehicle, n=6 per group, BrDU 6 hours before sacrifice): dose dependent increase
- beta-cell fraction of the total pancreas compared to vehicle treated rats (beta-cells [2]; 30 ng/g for 6 weeks): significantly higher
- beta-cell fraction of the total pancreas, further increase over the 30 ng/g dose (beta-cells [2]; 150 ng/g): no further increase
- reduction in the cytokine-induced apoptosis (neonatal rat islet cells; 100 nM, 24 hours with interleukin 1 40 U/ml, interferon-γ 100 U/ml, tumor necrosis factor-α 100 U/ml): approximately 50%
- block of cytokine-induced apoptosis in islet cells ex vivo (neonatal rat islet cells; 24 hour incubation with cytokine mix): able to block
- effect of the compound itself on the level of islet cell apoptosis (neonatal rat islet cells; without cytokine mix, 24 hours): no effect
